For 52 compounds, IC50 results are on record in patent publication US20240228487A1, “FUSED HETEROCYCLIC COMPOUND AND APPLICATION THEREOF, PHARMACEUTICAL COMPOSITIONS CONTAINING SAME AND APPLICATION THEREOF” (ZHEJIANG UNIVERSITY, priority 2021, published 2024).

A word on the IC50: it is the midpoint of a concentration-inhibition curve. Read a high IC50 as lower potency.

Where a name gives a salt, the structure may show the parent alone.

T1 sequence (O94759 whole entry): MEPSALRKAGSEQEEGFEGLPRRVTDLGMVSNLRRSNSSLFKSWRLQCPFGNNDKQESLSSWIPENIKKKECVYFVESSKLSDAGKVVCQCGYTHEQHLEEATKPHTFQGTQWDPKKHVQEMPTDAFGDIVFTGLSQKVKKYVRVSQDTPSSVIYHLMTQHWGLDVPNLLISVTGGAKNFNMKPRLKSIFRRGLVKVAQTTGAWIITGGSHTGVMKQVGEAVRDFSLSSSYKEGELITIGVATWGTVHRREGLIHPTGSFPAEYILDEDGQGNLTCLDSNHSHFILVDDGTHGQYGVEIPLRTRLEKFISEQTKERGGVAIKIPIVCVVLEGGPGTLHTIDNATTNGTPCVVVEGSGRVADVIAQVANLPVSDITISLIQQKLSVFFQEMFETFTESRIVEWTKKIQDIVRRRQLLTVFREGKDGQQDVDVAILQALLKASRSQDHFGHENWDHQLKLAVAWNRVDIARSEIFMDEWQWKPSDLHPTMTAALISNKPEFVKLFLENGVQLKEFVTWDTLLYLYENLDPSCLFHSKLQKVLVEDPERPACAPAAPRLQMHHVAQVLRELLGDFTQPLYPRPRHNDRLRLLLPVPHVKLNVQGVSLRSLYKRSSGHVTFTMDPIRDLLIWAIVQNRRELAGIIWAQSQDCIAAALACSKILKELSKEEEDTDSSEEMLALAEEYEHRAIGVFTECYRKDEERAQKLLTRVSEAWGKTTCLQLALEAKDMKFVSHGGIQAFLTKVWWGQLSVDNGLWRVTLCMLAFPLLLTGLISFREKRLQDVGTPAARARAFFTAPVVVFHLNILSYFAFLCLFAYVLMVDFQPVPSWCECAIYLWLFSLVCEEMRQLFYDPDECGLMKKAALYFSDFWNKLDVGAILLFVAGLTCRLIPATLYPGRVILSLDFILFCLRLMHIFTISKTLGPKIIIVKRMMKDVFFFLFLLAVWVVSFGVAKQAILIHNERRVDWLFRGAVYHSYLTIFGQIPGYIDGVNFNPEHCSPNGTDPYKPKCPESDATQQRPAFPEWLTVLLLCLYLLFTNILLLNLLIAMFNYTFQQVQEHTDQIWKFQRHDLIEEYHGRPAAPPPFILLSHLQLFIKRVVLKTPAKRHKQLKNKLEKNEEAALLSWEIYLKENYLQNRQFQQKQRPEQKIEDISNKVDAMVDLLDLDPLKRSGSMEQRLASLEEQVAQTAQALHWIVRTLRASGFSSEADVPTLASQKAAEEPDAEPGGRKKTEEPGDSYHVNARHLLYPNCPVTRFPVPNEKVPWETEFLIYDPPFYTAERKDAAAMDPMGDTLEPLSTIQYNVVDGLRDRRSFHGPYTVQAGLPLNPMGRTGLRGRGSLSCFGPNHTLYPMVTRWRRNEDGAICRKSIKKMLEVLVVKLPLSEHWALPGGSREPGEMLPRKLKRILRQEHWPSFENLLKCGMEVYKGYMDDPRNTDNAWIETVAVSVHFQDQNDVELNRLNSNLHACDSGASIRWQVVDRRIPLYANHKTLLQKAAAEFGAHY

This experiment concerns the target T1, human TRPM2 channels (Homo sapiens, UniProt O94759).
T1 construct: expressed in transfected cells
The experiment can be described thus: whole cell patch clamp, inhibition of TRPM2 channel current. It counts as cell-based. The conditions noted are these: HEK293 cells stably expressing human TRPM2, 500 μM ADPR. Here is the method: The fused heterocyclic compound of the present invention has an inhibitory effect on the TRPM2 channel, and its pharmacological activity is measured using whole cell patch clamp technology, the corresponding steps are as follows: Incubating HEK293 cells stably expressing human TRPM2 channels in DMEM/F-12 medium containing 10% bovine serum, 50 units/mL of penicillin and […] of streptomycin under the condition of 5% CO2 and 37° C. The cells before testing are stored in the extracellular fluid (147 mM NaCl, 2 mM KCl, 1 mM MgCl2, 2 mM CaCl2, 10 mM HEPES, 13 mM glucose, pH 7.4). The electrode is filled with the electrode internal solution (147 mM NaCl, 0.05 mM EGTA, 1 mM MgCl2, 10 mM HEPES, 0.5 mM ADPR, pH=7.3), and the resistance is maintained at 3-5 M Ω. Administering ADPR into cells through electrodes, and detecting the ADPR concentration used to activate TRPM2 as 500 μM, when detecting a stable current, perfusing the corresponding concentration of fused heterocyclic compound II-1 into the extracellular fluid for at least 60 seconds. record the change in current magnitude using voltage ramp mode, changing the voltage from −100 mV to+100 mV within 500 ms, with a normal clamp voltage of 0 mV and a TRPM every 5 seconds; finally, replacing the extracellular fluid with a solution with pH=5.0 to block the TRPM2 current, the electrophysiological current test results obtained are shown in Table 1, and the electrophysiological current graph obtained is shown in FIG. 1. Similarly, administering corresponding concentrations of other fused heterocyclic compounds (II-2˜II-54, III-1˜III-11) into the extracellular fluid, taking electrophysiological tests using the same method, the results are shown in Table 1. The electrophysiological representative current graphs of some fused heterocyclic compounds (II-9, II-19, and II-36) inhibiting TRPM2 channel current are shown in FIG. 1.
Turning to “5-((octanyloxy) (phenyl) methyl) indolizine-7-ethyl carboxylate [II-49]”, the IC50 fell in the range of 20 to 50 µM.

Compound `CCCOC(=O)c1cc(C(=O)c2ccccc2)n2cccc2c1` [II-2, 5-benzoimide 7-carboxypropyl ester] registered an IC50 of 1 to 10 µM.

The compound `CC(=O)c1cc(C(=O)c2ccccc2)n2cccc2c1` [II-3, 1-(5-Benzimide-7-yl) ethane-1-ketone] gave a concentration for half-maximal inhibition (IC50) of 10 to 20 µM.

The compound `COC(=O)c1cc(C(=O)c2ccc(F)cc2)n2cccc2c1` [II-4, 5-(4-Fluorobenzoyl) indolizine-7-methyl carboxylate] gave an IC50 of 10 to 20 µM.

In turn, `CCOC(=O)c1cc(C(=O)c2ccc(F)cc2)n2cccc2c1` [II-5, 5-(4-fluorobenzoyl) indolizinee-7-ethyl carboxylate] returned an IC50 of 10 to 20 µM.

Consider `COC(=O)c1cc(C(=O)c2cccc(F)c2)n2cccc2c1` [II-6, 5-(3-Fluorobenzoyl)indolizine-7-methyl carboxylate], for which the IC50 lay in the range of 1 to 10 µM.

Compound `CCOC(=O)c1cc(C(=O)c2cccc(F)c2)n2cccc2c1` [II-7, 5-(3-fluorobenzoyl)indolizine-7-ethyl carboxylate] came in with an IC50 of 1 to 10 µM.

As for `COC(=O)c1cc(C(=O)c2ccccc2F)n2cccc2c1` [II-8, 5-(2-Fluorobenzoyl) indolizine-7-methyl carboxylate], the IC50 fell in the range of 1 to 10 µM.

With `CCOC(=O)c1cc(C(=O)c2cccc(Cl)c2)n2cccc2c1` [II-9, 5-(3-chlorobenzoyl) indolizine-7-ethyl carboxylate], the half-maximal inhibitory concentration (IC50) lay in the range of 1 to 10 µM.

In turn, `CCOC(=O)c1cc(C(=O)c2cccc(Br)c2)n2cccc2c1` [II-10, 5-(3-bromobenzoyl) indolizine-7-Ethyl carboxylate] registered an IC50 of 1 to 10 µM.

`CCOC(=O)c1cc(C(=O)c2cccc(C)c2)n2cccc2c1` [II-11, 5-(3-methylbenzoyl) indolizine-7-Ethyl carboxylate] displayed a concentration for half-maximal inhibition (IC50) of 1 to 10 µM.

Regarding `CCOC(=O)c1cc(C(=O)c2cccc(OC)c2)n2cccc2c1` [II-12, Ethyl 5-(3-methoxybenzoyl) indolizine-7-carboxylate], the IC50 fell in the range of 10 to 20 µM.

As to `COC(=O)c1cc(C(=O)c2ccco2)n2cccc2c1` [II-13, 5-(furan-2-carbonyl) indolizine-7-methyl carboxylate], the IC50 lay within 1 to 10 µM.

`CCOC(=O)c1cc(C(=O)c2ccco2)n2cccc2c1` [II-14, 5-(furan-2-carbonyl) indolizine-7-ethyl carboxylate] displayed an IC50 of 1 to 10 µM.

`COC(=O)c1cc(C(=O)c2cccs2)n2cccc2c1` [II-15, 5-(thiophen-2-carbonyl)indolizine-7-methyl carboxylate]: the half-maximal inhibitory concentration (IC50) lay in the range of 10 to 20 µM.

In turn, `CCOC(=O)c1cc(C(=O)c2cccs2)n2cccc2c1` [II-16, 5-(thiophen-2-carbonyl) indolizine-7-ethyl carboxylate] registered an IC50 of 1 to 10 µM.

`COC(=O)c1cc(C(=O)c2ccccn2)n2cccc2c1` [II-17, 5-methylpyridinimide-7-methyl carboxylate] yielded an IC50 of 1 to 10 µM.

Take `CCOC(=O)c1cc(C(=O)c2ccccn2)n2cccc2c1` [II-18, 5-methylpyridinimide-7-ethyl carboxylate]: the IC50 lay within 1 to 10 µM.

`O=C(O)c1cc(C(=O)c2ccccc2)n2cccc2c1` [II-19, 5-benzimide-7-carboxylic acid] registered a 50% inhibitory concentration (IC50) of 10 to 20 µM.

In turn, `NC(=O)c1cc(C(=O)c2ccccc2)n2cccc2c1` [II-20, 5-benzimide-7-formamide] yielded a concentration for half-maximal inhibition (IC50) of 10 to 20 µM.

`CCNC(=O)c1cc(C(=O)c2ccccc2)n2cccc2c1` [II-21, 5-benzoyl-N-ethylindolizine-7-formamide] came in with a half-inhibitory concentration (IC50) of 10 to 20 µM.

Regarding `CN(C)C(=O)c1cc(C(=O)c2ccccc2)n2cccc2c1` [II-22, 5-benzoyl-N, N-dimethylindolizine-7-formamide], the 50% inhibitory concentration (IC50) was in the range of 10 to 20 µM.

Consider `CCN(C)C(=O)c1cc(C(=O)c2ccccc2)n2cccc2c1` [II-24, 5-Benzoyl-N-ethyl-N-methylindolizine-7-formamide], for which the 50% inhibitory concentration (IC50) lay within 1 to 10 µM.

`CON(C)C(=O)c1cc(C(=O)c2ccccc2)n2cccc2c1` [II-25, 5-Benzoyl-N-methoxy-N-methylindolizine-7-formamide] registered a half-inhibitory concentration (IC50) of 1 to 10 µM.

The compound `O=C(c1ccccc1)c1cc(C(=O)N2CCC2)cc2cccn12` [II-26, azetidine-1-yl (5-benzoimide 7-yl) ketone] returned a concentration for half-maximal inhibition (IC50) of 1 to 10 µM.

`O=C(c1ccccc1)c1cc(C(=O)N2CCCC2)cc2cccn12` [II-27, (5-benzoimide 7-yl) (pyrrolidine-1-yl) ketone] had an IC50 of 10 to 20 µM.

On to `O=C(c1ccccc1)c1cc(C(=O)N2CCCCC2)cc2cccn12` [II-28, (5-benzimide 7-yl) (piperidin-1-yl) ketone], for which the concentration for half-maximal inhibition (IC50) is 10 to 20 µM.

With `O=C(c1ccccc1)c1cc(C(=O)N2CCNCC2)cc2cccn12` [II-29, (5-benzoyl indolizine-7-yl) (piperazin-1-yl) ketone], the 50% inhibitory concentration (IC50) lay within 20 to 50 µM.

Compound `O=C(c1ccccc1)c1cc(C(=O)N2CCOCC2)cc2cccn12` [II-30, (5-benzimide-7-yl) (morphyryl) ketone] came in with a half-inhibitory concentration (IC50) of 20 to 50 µM.

`CN1CCN(C(=O)c2cc(C(=O)c3ccccc3)n3cccc3c2)CC1` [II-31, (5-Benzimide-7-yl) (4-methylpiperazin-1-yl) ketone]: the IC50 lay in the range of 10 to 20 µM.

Compound `CCN(CC)C(=O)c1cc(C(=O)c2ccccc2F)n2cccc2c1` [II-32, N, N-Diethyl-5-(2-fluorobenzoyl) indolizine-7-formamide] displayed an IC50 of 10 to 20 µM.

For the compound `O=C(c1ccccc1F)c1cc(C(=O)N2CCCC2)cc2cccn12` [II-33, (5-(2-fluorobenzoyl)indolizine-7-yl) (pyrrolidine-1-yl) ketone], the concentration for half-maximal inhibition (IC50) fell in the range of 10 to 20 µM.

`CCN(CC)C(=O)c1cc(C(=O)c2ccccn2)n2cccc2c1` [II-34, N, N-Diethyl-5-pyridylimide-7-formamide] yielded an IC50 of 1 to 10 µM.

`O=C(c1ccccn1)c1cc(C(=O)N2CCCC2)cc2cccn12` [II-35] registered an IC50 of 10 to 20 µM.

In the case of `O=C(c1ccccn1)c1cc(C(=O)N2CCNCC2)cc2cccn12` [II-36, (5-Pyridinyllin-2-yl) (Piperazin-1-yl) Methylketone], the 50% inhibitory concentration (IC50) lay within 20 to 50 µM.

Turning to `O=C(c1ccccc1)c1cc(C(=O)N2CCNCC2)cc2cccn12` [II-37, (5-Benzimide-7-yl) (piperazin-1-yl) ketone hydrochloride], the half-inhibitory concentration (IC50) lay in the range of 10 to 20 µM.

For the compound `CCN(CC)C(=O)c1cc(C(=O)c2ccccn2)n2cccc2c1` [II-38, N,N-Diethyl-5-pyridylimide-7-formamide hydrochloride], the 50% inhibitory concentration (IC50) was in the range of 20 to 50 µM.

`O=C(c1ccccn1)c1cc(C(=O)N2CCNCC2)cc2cccn12` [II-40, hydrochloride]: the half-inhibitory concentration (IC50) is 10 to 20 µM.

Compound `CCOC(=O)c1cc(C(O)c2ccccc2)n2cccc2c1` (stereo not shown) [II-41] registered an IC50 of 10 to 20 µM.

As for `O=C(O)c1cc(C(O)c2ccccc2)n2cccc2c1` (stereo not shown) [II-42], the IC50 was in the range of 10 to 20 µM.

In the case of `CCNC(=O)c1cc(C(O)c2ccccc2)n2cccc2c1` (stereo not shown) [II-43, N-ethyl-5-(hydroxy(phenyl)methyl) indolizine-7-formamide], the concentration for half-maximal inhibition (IC50) lay in the range of 10 to 20 µM.

`CN(C)C(=O)c1cc(C(O)c2ccccc2)n2cccc2c1` (stereo not shown) [II-44, 5-(hydroxy(phenyl)methyl)-N, N-dimethylindolizine-7-formamide] showed an IC50 of 10 to 20 µM.

As for `CCN(CC)C(=O)c1cc(C(O)c2ccccc2)n2cccc2c1` (stereo not shown) [II-45, N,N-diethyl-5-(hydroxy(phenyl)methyl) indolizine-7-formamide], the IC50 was 10 to 20 µM.

Compound `CCN(C)C(=O)c1cc(C(O)c2ccccc2)n2cccc2c1` (stereo not shown) [II-46, N-ethyl-5-(hydroxy(phenyl)methyl)-N-methylindolizine-7-formamide] gave an IC50 of 10 to 20 µM.

The compound `CCOC(=O)c1cc(C(OC(C)=O)c2ccccc2)n2cccc2c1` (stereo not shown) [II-47, 5-(acetoxy (phenyl)methyl) indolizine-7-ethyl carboxylate] showed an IC50 of 10 to 20 µM.

`CCCC(=O)OC(c1ccccc1)c1cc(C(=O)OCC)cc2cccn12` (stereo not shown) [II-48] came in with an IC50 of 10 to 20 µM.

Compound `CCN(CC)C(=O)c1cc(C(OC(C)=O)c2ccccc2)n2cccc2c1` (stereo not shown) [II-50] returned an IC50 of 10 to 20 µM.

As for `CCCC(=O)OC(c1ccccc1)c1cc(C(=O)N(CC)CC)cc2cccn12` (stereo not shown) [II-51], the IC50 lay within 20 to 50 µM.

In the case of `CCCCCCCC(=O)OC(c1ccccc1)c1cc(C(=O)N(CC)CC)cc2cccn12` (stereo not shown) [II-52], the IC50 lay in the range of 20 to 50 µM.

The compound `CCOC(=O)c1cc(C(OC)c2ccccc2)n2cccc2c1` (stereo not shown) [II-53] yielded an IC50 of 1 to 10 µM.

Compound `CCCOC(c1ccccc1)c1cc(C(=O)OCC)cc2cccn12` (stereo not shown) [II-54, 5-(Phenyl (Propyloxy) Methylindolizine-7-ethyl carboxylate] registered an IC50 of 10 to 20 µM.

The compound `COC(=O)c1cc(C(=O)c2ccc(Cl)cc2)n2ccnc2c1` [III-2, 5-(4-chlorobenzoyl) imidazolo [1,2-a]pyridine-7-methyl carboxylate] yielded a half-maximal inhibitory concentration (IC50) of 10 to 20 µM.
